From the supplement of paper PMC10627819

Experiments:
S. pneumoniae D39V [1] = experiment: Bliss interaction score (quartile over a dose matrix) (fitness difference); higher = more antagonism (negative = synergy)
How it was run: (§1)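 Fitness here means normalised growth, inferred for single drugs from the combination data. Growth was OD595 at entry into stationary phase, divided by the plate's robust no-drug mean and capped at 1. The Bliss score is observed minus expected fitness, with the expectation being the product, and its quartiles span technical, biological and donor/recipient replicates.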

S. aureus Newman [2] = experiment: as above
How it was run: as §1

S. aureus DSM 20231 [3] = experiment: as above
How it was run: as §1

B. subtilis 168 [4] = experiment: as above
How it was run: as §1

S. pneumoniae D39V [5] = experiment: fitness (endpoint OD595 vs no drug) (fraction); higher = more growth
How it was run: (§2)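 Growth medium was TSB, LB Lennox or CY, and plates were kept at 37 °C. Inoculation was at OD595 0.01 in 384-well plates, at 30 µl per well or 55 µl for S. pneumoniae. OD595 was monitored every 30 min for 14 h and background-subtracted using the first reading. Fitness is the optical density on entering stationary phase divided by the robust mean of no-drug controls, with values capped at 1.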

S. aureus Newman [6] = experiment: as above
How it was run: as §2

S. aureus DSM 20231 [7] = experiment: as above
How it was run: as §2

B. subtilis 168 [8] = experiment: as above
How it was run: as §2
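Throughout, for Bliss interaction score (quartile over a dose matrix): first quartile when negative (synergy) and third quartile when positive (antagonism).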
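Throughout, for fitness (endpoint OD595 vs no drug): OD595 on entry to stationary phase over no-drug wells; at most 1.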

O=C(O[C@@H]1Cc2c(O)cc(O)cc2O[C@@H]1c1cc(O)c(O)c(O)c1)c1cc(O)c(O)c(O)c1 [EGCG] + Cc1onc(-c2ccccc2)c1C(=O)N[C@@H]1C(=O)N2[C@@H]1SC(C)(C)[C@@H]2C(=O)O [Oxacillin]
Conditions	Bliss interaction score
B. subtilis 168 [4]	-0.0648
S. aureus DSM 20231 [3]	-0.0707
S. aureus Newman [2]	0.0991
S. pneumoniae D39V [1]	0.0942

fitness
Conditions	first compound 6.25 µg/mL	first compound 12.5 µg/mL	first compound 25 µg/mL	first compound 50 µg/mL
B. subtilis 168 [8], partner 0.002 µg/mL	0.935	–	0.202	–
B. subtilis 168 [8], partner 0.004 µg/mL	0.924	0.538	0.205	–
B. subtilis 168 [8], partner 0.008 µg/mL	0.898	0.525	0.186	–
S. aureus DSM 20231 [7], partner 0.0156 µg/mL	–	0.645	0.582	0.62
S. aureus DSM 20231 [7], partner 0.0312 µg/mL	–	0.498	0.548	–
S. aureus DSM 20231 [7], partner 0.0625 µg/mL	–	0.442	0.393	0.34
S. aureus Newman [6], partner 0.0156 µg/mL	–	0.591	0.605	–
S. aureus Newman [6], partner 0.0312 µg/mL	–	0.624	0.681	–
S. aureus Newman [6], partner 0.0625 µg/mL	–	0.59	0.636	–
S. pneumoniae D39V [5], partner 0.005 µg/mL	–	0.989	0.973	≥ 1
S. pneumoniae D39V [5], partner 0.01 µg/mL	–	0.924	0.903	0.966
S. pneumoniae D39V [5], partner 0.02 µg/mL	–	0.929	0.947	0.923
S. pneumoniae D39V [5], partner 0.04 µg/mL	–	0.474	0.576	0.632

fitness, B. subtilis 168 [8], one replicate
Conditions	partner 0.0078 µg/mL	partner 0.0155 µg/mL	partner 0.031 µg/mL	partner 0.075 µg/mL	partner 0.15 µg/mL	partner 0.3 µg/mL
first compound 6.25 µg/mL	0.998	0.978	0.972	0.515	0.0556	0.0544
first compound 12.5 µg/mL	0.858	0.852	0.792	0.444	0.0247	0.0417
first compound 25 µg/mL	0.602	0.559	0.434	0.139	0.0233	0.024

O=C(O[C@@H]1Cc2c(O)cc(O)cc2O[C@@H]1c1cc(O)c(O)c(O)c1)c1cc(O)c(O)c(O)c1 [EGCG] + Cc1ncc([N+](=O)[O-])n1CCO [Metronidazole]
Conditions	Bliss interaction score
B. subtilis 168 [4]	-0.039
S. aureus DSM 20231 [3]	-0.112
S. aureus Newman [2]	0.0648
S. pneumoniae D39V [1]	-0.0826

fitness
Conditions	partner 0.625 µg/mL	partner 1.073 µg/mL	partner 1.25 µg/mL	partner 2.145 µg/mL	partner 2.5 µg/mL	partner 4.29 µg/mL	partner 5 µg/mL
B. subtilis 168 [8], first compound 6.25 µg/mL	0.969	–	0.944	–	0.928	–	–
S. aureus DSM 20231 [7], first compound 12.5 µg/mL	0.853	–	0.787	–	0.795	–	–
S. aureus DSM 20231 [7], first compound 25 µg/mL	0.792	–	0.807	–	0.838	–	–
S. aureus DSM 20231 [7], first compound 50 µg/mL	0.779	–	0.753	–	0.841	–	–
S. aureus Newman [6], first compound 12.5 µg/mL	0.833	–	0.847	–	0.809	–	–
S. aureus Newman [6], first compound 25 µg/mL	0.833	–	0.807	–	0.785	–	–
S. aureus Newman [6], first compound 50 µg/mL	0.769	–	0.747	–	0.736	–	–
S. pneumoniae D39V [5], first compound 12.5 µg/mL	–	0.888	0.956	0.493	0.982	0.825	0.976
S. pneumoniae D39V [5], first compound 25 µg/mL	–	0.839	0.979	–	≥ 1	–	0.984
S. pneumoniae D39V [5], first compound 50 µg/mL	–	0.803	0.813	0.391	0.949	0.602	0.907

fitness, S. aureus Newman [6], one replicate
Conditions	first compound 12.5 µg/mL	first compound 25 µg/mL	first compound 50 µg/mL
partner 0.781 µg/mL	0.781	0.807	0.943
partner 1.562 µg/mL	0.8	0.833	≥ 1
partner 3.124 µg/mL	0.782	0.81	0.963

O=C(O[C@@H]1Cc2c(O)cc(O)cc2O[C@@H]1c1cc(O)c(O)c(O)c1)c1cc(O)c(O)c(O)c1 [EGCG] + Cc1cc(NS(=O)(=O)c2ccc(N)cc2)no1 [Sulfamethoxazol]
Conditions	Bliss interaction score
B. subtilis 168 [4]	-0.0762
S. aureus DSM 20231 [3]	0.071
S. aureus Newman [2]	0.0456
S. pneumoniae D39V [1]	0.0423

fitness
Conditions	partner 1 µg/mL	partner 2 µg/mL	partner 4 µg/mL
B. subtilis 168 [8], first compound 6.25 µg/mL	0.881	0.815	0.901
B. subtilis 168 [8], first compound 25 µg/mL	–	0.299	0.341
S. aureus DSM 20231 [7], first compound 12.5 µg/mL	0.841	0.863	0.854
S. aureus DSM 20231 [7], first compound 25 µg/mL	0.769	0.842	0.833
S. aureus DSM 20231 [7], first compound 50 µg/mL	0.75	0.733	0.795
S. aureus Newman [6], first compound 12.5 µg/mL	0.806	0.806	0.786
S. aureus Newman [6], first compound 25 µg/mL	0.764	0.801	0.779
S. aureus Newman [6], first compound 50 µg/mL	0.685	0.783	0.772
S. pneumoniae D39V [5], first compound 12.5 µg/mL	0.934	0.905	0.965
S. pneumoniae D39V [5], first compound 25 µg/mL	0.941	0.966	0.905
S. pneumoniae D39V [5], first compound 50 µg/mL	0.951	≥ 1	0.725

fitness, one replicate
Conditions	first compound 6.25 µg/mL	first compound 12.5 µg/mL	first compound 25 µg/mL	first compound 50 µg/mL
B. subtilis 168 [8], partner 0.5 µg/mL	0.831	0.551	0.271	–
S. aureus Newman [6], partner 8 µg/mL	–	0.712	0.703	0.675

CCC[C@@H]1C[C@@H](C(=O)N[C@@H]([C@H]2O[C@H](SC)[C@H](O)[C@@H](O)[C@H]2O)[C@H](C)Cl)N(C)C1 [Clindamycin] + Cc1ncc([N+](=O)[O-])n1CCO [Metronidazole]
Conditions	Bliss interaction score
B. subtilis 168 [4]	0.0367
S. aureus DSM 20231 [3]	0.0542
S. aureus Newman [2]	0.0887
S. pneumoniae D39V [1]	0.0971

Conditions	fitness
B. subtilis 168 [8], first compound 0.0625 µg/mL, partner 0.625 µg/mL	0.572
B. subtilis 168 [8], first compound 0.0625 µg/mL, partner 1.25 µg/mL	0.54
B. subtilis 168 [8], first compound 0.0625 µg/mL, partner 2.5 µg/mL	0.548
B. subtilis 168 [8], first compound 0.125 µg/mL, partner 0.625 µg/mL	0.403
B. subtilis 168 [8], first compound 0.125 µg/mL, partner 1.25 µg/mL	0.38
B. subtilis 168 [8], first compound 0.125 µg/mL, partner 2.5 µg/mL	0.373
B. subtilis 168 [8], first compound 0.25 µg/mL, partner 0.625 µg/mL	0.38
B. subtilis 168 [8], first compound 0.25 µg/mL, partner 1.25 µg/mL	0.381
B. subtilis 168 [8], first compound 0.25 µg/mL, partner 2.5 µg/mL	0.369
S. aureus DSM 20231 [7], first compound 0.125 µg/mL, partner 0.625 µg/mL	0.0566
S. aureus DSM 20231 [7], first compound 0.125 µg/mL, partner 1.25 µg/mL	0.0685
S. aureus DSM 20231 [7], first compound 0.125 µg/mL, partner 2.5 µg/mL	0.0748
S. aureus Newman [6], first compound 0.0312 µg/mL, partner 0.625 µg/mL	0.666
S. aureus Newman [6], first compound 0.0312 µg/mL, partner 1.25 µg/mL	0.801
S. aureus Newman [6], first compound 0.0312 µg/mL, partner 2.5 µg/mL	0.821
S. aureus Newman [6], first compound 0.0625 µg/mL, partner 1.25 µg/mL	0.425
S. aureus Newman [6], first compound 0.0625 µg/mL, partner 2.5 µg/mL	0.444
S. aureus Newman [6], first compound 0.125 µg/mL, partner 0.625 µg/mL	0.0588
S. aureus Newman [6], first compound 0.125 µg/mL, partner 1.25 µg/mL	0.056
S. aureus Newman [6], first compound 0.125 µg/mL, partner 2.5 µg/mL	0.0505
S. pneumoniae D39V [5], first compound 0.0125 µg/mL, partner 1.25 µg/mL	0.815
S. pneumoniae D39V [5], first compound 0.0125 µg/mL, partner 2.5 µg/mL	0.827
S. pneumoniae D39V [5], first compound 0.0125 µg/mL, partner 5 µg/mL	0.828
S. pneumoniae D39V [5], first compound 0.015 µg/mL, partner 1.073 µg/mL	0.956
S. pneumoniae D39V [5], first compound 0.015 µg/mL, partner 2.145 µg/mL	0.912
S. pneumoniae D39V [5], first compound 0.015 µg/mL, partner 4.29 µg/mL	0.841
S. pneumoniae D39V [5], first compound 0.025 µg/mL, partner 1.25 µg/mL	0.581
S. pneumoniae D39V [5], first compound 0.025 µg/mL, partner 2.5 µg/mL	0.553
S. pneumoniae D39V [5], first compound 0.025 µg/mL, partner 5 µg/mL	0.518
S. pneumoniae D39V [5], first compound 0.03 µg/mL, partner 1.073 µg/mL	0.833
S. pneumoniae D39V [5], first compound 0.03 µg/mL, partner 2.145 µg/mL	0.839
S. pneumoniae D39V [5], first compound 0.03 µg/mL, partner 4.29 µg/mL	0.771
S. pneumoniae D39V [5], first compound 0.05 µg/mL, partner 1.25 µg/mL	0.269
S. pneumoniae D39V [5], first compound 0.05 µg/mL, partner 2.5 µg/mL	0.242
S. pneumoniae D39V [5], first compound 0.05 µg/mL, partner 5 µg/mL	0.246
S. pneumoniae D39V [5], first compound 0.06 µg/mL, partner 1.073 µg/mL	0.61
S. pneumoniae D39V [5], first compound 0.06 µg/mL, partner 2.145 µg/mL	0.682
S. pneumoniae D39V [5], first compound 0.06 µg/mL, partner 4.29 µg/mL	0.642

fitness, one replicate
Conditions	first compound 0.0039 µg/mL	first compound 0.0078 µg/mL	first compound 0.0156 µg/mL	first compound 0.0312 µg/mL	first compound 0.0625 µg/mL	first compound 0.125 µg/mL
B. subtilis 168 [8], partner 0.625 µg/mL	0.918	0.528	0.83	–	–	–
B. subtilis 168 [8], partner 1.25 µg/mL	0.984	0.804	0.842	–	–	–
B. subtilis 168 [8], partner 2.5 µg/mL	0.907	0.547	0.867	–	–	–
S. aureus Newman [6], partner 0.781 µg/mL	–	–	–	0.71	0.533	0.0936
S. aureus Newman [6], partner 1.562 µg/mL	–	–	–	0.72	0.582	0.13
S. aureus Newman [6], partner 3.124 µg/mL	–	–	–	0.688	0.595	0.113
